≈ marks a conversion by molar mass, not a printed value.
What was measured:
Assay type in all cases: cell-based
[1] = test system: Streptococcus pneumoniae 1175; conditions: S. pneumoniae 1175 (mefA); microtiter broth dilution
Method in brief: (§1)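 MIC read-out follows NCCLS M100-S14 interpretation of microtiter tray broth dilution. Test agents are prepared as DMSO stocks at 40 mg/ml.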

[2] = test system: Streptococcus pneumoniae 1095; conditions: S. pneumoniae 1095 (ermB); microtiter broth dilution
Method in brief: as §1

[3] = test system: Streptococcus pyogenes 1079; assay: MIC, microtiter broth dilution (NCCLS M100-S14), S. pyogenes 1079 (ermB); conditions: S. pyogenes 1079 (ermB)
Method in brief: as §1

[4] = test system: Streptococcus pneumoniae 1016; assay: MIC, microtiter broth dilution (NCCLS M100-S14), S. pneumoniae 1016 (susceptible); conditions: S. pneumoniae 1016 (susceptible)
Method in brief: as §1

[5] = test system: Haemophilus influenzae 1218; assay: MIC, microtiter broth dilution (NCCLS M100-S14), H. influenzae 1218 (susceptible); conditions: H. influenzae 1218 (susceptible)
Method in brief: as §1

Row | SMILES | MIC S. pneumo. 1175 [1] [mg/L] | MIC S. pneumo. 1095 [2] [mg/L] | MIC S. pyogenes 1079 [3] [mg/L] | MIC S. pneumo. 1016 [4] [mg/L] | MIC H. influenzae 1218 [5] [mg/L]
1 | CCC1OC(=O)C(C)C(=O)C(C)C(OC2OC(C)CC(N(C)C)C2O)C(C)(OC)CC(C)C(=O)C(C)C2N(CC3CCCN3C(=O)c3ccnc4ccccc34)C(=O)OC12C (centres unmarked) [12.08] | 2 (≈ 2.35 µM) | 1 (≈ 1.18 µM) | >64.00 | <0.06 | 16 (≈ 18.8 µM)
2 | CCC1OC(=O)C(C)C(=O)C(C)C(OC2OC(C)CC(N(C)C)C2O)C(C)(OC)CC(C)C(=O)C(C)C2N(CC3CCCN3C(=O)c3cc4ccccc4cn3)C(=O)OC12C (centres unmarked) [12.09] | 1 (≈ 1.18 µM) | 1 (≈ 1.18 µM) | >64.00 | <0.06 | 2 (≈ 2.35 µM)
3 | CCC1OC(=O)C(C)C(=O)C(C)C(OC2OC(C)CC(N(C)C)C2O)C(C)(OC)CC(C)C(=O)C(C)C2N(CC3CCCN3C(=O)c3cccc4cccnc34)C(=O)OC12C (centres unmarked) [12.10] | 2 (≈ 2.35 µM) | 0.5 (≈ 0.588 µM) | >64.00 | <0.06 | 8 (≈ 9.4 µM)
4 | CCC1OC(=O)C(C)C(=O)C(C)C(OC2OC(C)CC(N(C)C)C2O)C(C)(OC)CC(C)C(=O)C(C)C2N(CC3CCCN3C(=O)c3ccc4cccnc4c3)C(=O)OC12C (centres unmarked) [12.12] | 1 (≈ 1.18 µM) | <0.06 | >64.00 | <0.06 | 2 (≈ 2.35 µM)
5 | CCC1OC(=O)C(C)C(=O)C(C)C(OC2OC(C)CC(N(C)C)C2O)C(C)(OC)CC(C)C(=O)C(C)C2N(CC3CCN(Cc4c[nH]c5ncccc45)C3)C(=O)OC12C (centres unmarked) [13.01] | 1 (≈ 1.21 µM) | 0.25 (≈ 0.303 µM) | >64.00 | <0.06 | 1 (≈ 1.21 µM)
6 | CCC1OC(=O)C(C)C(=O)C(C)C(OC2OC(C)CC(N(C)C)C2O)C(C)(OC)CC(C)C(=O)C(C)C2N(CC3CCN(Cc4c[nH]c5cc(=O)[nH]cc45)C3)C(=O)OC12C (centres unmarked) [13.02] | 4 (≈ 4.75 µM) | 16 (≈ 19 µM) | 64 (≈ 76 µM) | 0.12 (≈ 0.143 µM) | 16 (≈ 19 µM)
7 | CCC1OC(=O)C(C)C(=O)C(C)C(OC2OC(C)CC(N(C)C)C2O)C(C)(OC)CC(C)C(=O)C(C)C2N(CC3CCN(Cc4c[nH]c5cnccc45)C3)C(=O)OC12C (centres unmarked) [13.03] | 4 (≈ 4.84 µM) | 1 (≈ 1.21 µM) | >64.00 | <0.06 | 2 (≈ 2.42 µM)
8 | CCC1OC(=O)C(C)C(=O)C(C)C(OC2OC(C)CC(N(C)C)C2O)C(C)(OC)CC(C)C(=O)C(C)C2N(CC3CCN(Cc4ccc5cccc(O)c5n4)C3)C(=O)OC12C (centres unmarked) [13.04] | 0.25 (≈ 0.293 µM) | 1 (≈ 1.17 µM) | 64 (≈ 75 µM) | <0.06 | 1 (≈ 1.17 µM)
9 | CCC1OC(=O)C(C)C(=O)C(C)C(OC2OC(C)CC(N(C)C)C2O)C(C)(OC)CC(C)C(=O)C(C)C2N(CC3CCN(Cc4ccc(-c5ccccn5)cc4)C3)C(=O)OC12C (centres unmarked) [13.05] | 0.5 (≈ 0.579 µM) | 16 (≈ 18.5 µM) | >64.00 | <0.06 | 4 (≈ 4.63 µM)
10 | CCC1OC(=O)C(C)C(=O)C(C)C(OC2OC(C)CC(N(C)C)C2O)C(C)(OC)CC(C)C(=O)C(C)C2N(CC3CCN(Cc4ccno4)C3)C(=O)OC12C (centres unmarked) [13.06] | 0.5 (≈ 0.644 µM) | >64.00 | >64.00 | <0.06 | 2 (≈ 2.57 µM)
11 | CCC1OC(=O)C(C)C(=O)C(C)C(OC2OC(C)CC(N(C)C)C2O)C(C)(OC)CC(C)C(=O)C(C)C2N(CC3CCN(Cc4c[nH]nn4)C3)C(=O)OC12C (centres unmarked) [13.07] | 4 (≈ 5.15 µM) | >64.00 | >64.00 | <0.06 | 2 (≈ 2.57 µM)
12 | CCC1OC(=O)C(C)C(=O)C(C)C(OC2OC(C)CC(N(C)C)C2O)C(C)(OC)CC(C)C(=O)C(C)C2N(CC3CCN(Cc4c[nH]c(-c5ccccc5)n4)C3)C(=O)OC12C (centres unmarked) [13.08] | 0.5 (≈ 0.587 µM) | 4 (≈ 4.69 µM) | 64 (≈ 75.1 µM) | <0.06 | 2 (≈ 2.35 µM)
13 | CCC1OC(=O)C(C)C(=O)C(C)C(OC2OC(C)CC(N(C)C)C2O)C(C)(OC)CC(C)C(=O)C(C)C2N(CC3CCN(C(=O)c4ccc5cnccc5n4)C3)C(=O)OC12C (centres unmarked) [13.09] | 1 (≈ 1.17 µM) | >64.00 | >64.00 | <0.06 | 4 (≈ 4.69 µM)
14 | CCC1OC(=O)C(C)C(=O)C(C)C(OC2OC(C)CC(N(C)C)C2O)C(C)(OC)CC(C)C(=O)C(C)C2N(CC3CCN(C(=O)c4cnc5ccccc5c4)C3)C(=O)OC12C (centres unmarked) [13.10] | 0.25 (≈ 0.294 µM) | >64.00 | >64.00 | <0.06 | 4 (≈ 4.7 µM)
15 | CCC1OC(=O)C(C)C(=O)C(C)C(OC2OC(C)CC(N(C)C)C2O)C(C)(OC)CC(C)C(=O)C(C)C2N(CC3CCN(C(=O)c4cccc5cccnc45)C3)C(=O)OC12C (centres unmarked) [13.11] | 4 (≈ 4.7 µM) | 16 (≈ 18.8 µM) | >64.00 | <0.06 | 4 (≈ 4.7 µM)
16 | CCC1OC(=O)C(C)C(=O)C(C)C(OC2OC(C)CC(N(C)C)C2O)C(C)(OC)CC(C)C(=O)C(C)C2N(CC3CCN(C(=O)c4ccc5ncccc5c4)C3)C(=O)OC12C (centres unmarked) [13.12] | 0.5 (≈ 0.588 µM) | >64.00 | >64.00 | <0.06 | 4 (≈ 4.7 µM)
17 | CCC1OC(=O)C(C)C(=O)C(C)C(OC2OC(C)CC(N(C)C)C2O)C(C)(OC)CC(C)C(=O)C(C)C2N(CC3CCN(C(=O)c4cnc5ccccc5n4)C3)C(=O)OC12C (centres unmarked) [13.13] | 0.5 (≈ 0.587 µM) | >64.00 | >64.00 | <0.06 | 16 (≈ 18.8 µM)
18 | CCC1OC(=O)C(C)C(=O)C(C)C(OC2OC(C)CC(N(C)C)C2O)C(C)(OC)CC(C)C(=O)C(C)C2N(CC3CCN(C(=O)c4cccc5ncsc45)C3)C(=O)OC12C (centres unmarked) [13.14] | <0.06 | 2 (≈ 2.33 µM) | >64.00 | <0.06 | 1 (≈ 1.17 µM)
19 | CCC1OC(=O)C(C)C(=O)C(C)C(OC2OC(C)CC(N(C)C)C2O)C(C)(OC)CC(C)C(=O)C(C)C2N(CC3CCN(C(=O)c4cc5cccnc5[nH]4)C3)C(=O)OC12C (centres unmarked) [13.15] | 0.12 (≈ 0.143 µM) | 2 (≈ 2.38 µM) | >64.00 | <0.06 | 4 (≈ 4.76 µM)
20 | CCC1OC(=O)C(C)C(=O)C(C)C(OC2OC(C)CC(N(C)C)C2O)C(C)(OC)CC(C)C(=O)C(C)C2N(CC3CCN(C(=O)c4cc5ccccn5n4)C3)C(=O)OC12C (centres unmarked) [13.16] | 1 (≈ 1.19 µM) | >64.00 | >64.00 | <0.06 | 16 (≈ 19 µM)
21 | CCC1OC(=O)C(C)C(=O)C(C)C(OC2OC(C)CC(N(C)C)C2O)C(C)(OC)CC(C)C(=O)C(C)C2N(CC3CCN(C(=O)c4cncc5ccccc45)C3)C(=O)OC12C (centres unmarked) [13.17] | 0.25 (≈ 0.294 µM) | >64.00 | >64.00 | <0.06 | 4 (≈ 4.7 µM)
22 | CCC1OC(=O)C(C)C(=O)C(C)C(OC2OC(C)CC(N(C)C)C2O)C(C)(OC)CC(C)C(=O)C(C)C2N(CC3CCN(Cc4cccc5nccnc45)CC3)C(=O)OC12C (centres unmarked) [15.01] | 0.25 (≈ 0.293 µM) | >64.00 | >64.00 | <0.06 | 32 (≈ 37.6 µM)

— patent US7462600B2, “Macrolides” (Pfizer Inc, priority 2004, dated 2008)
